Experimental data taken from US20060241178A1, “Compositions and methods for treating lung cancer” (priority 2002, published 2006).
“Also recorded” adds a separate entry of the source. Where two headings read alike, the source gives them in different places. Marks after values point to notes of the source that are not given here.

Columns and labels:
JNK 1 and 2 = assay: Western blot of lung total proteins: JNK phosphorylation; format: in vivo, A/J mice; conditions: lung tissue 21 days after B(a)P
[1] = Stability of conjugates in AIN-76A diet (methanol extraction, HPLC); format: physicochemical; conditions: stored at 4° C. under nitrogen
Description: The ITC conjugates were incorporated (15 μmol/g diet) into AIN-76A diets (5% corn oil) by mixing with dextrose prior to diet preparation. […] After mixing with dextrose, the solvent was removed using a rotary evaporator and further dried using a vacuum pump (2-3 h). Diets were prepared in 1-2 kg batches, and were stored at 4° C. in a container purged with nitrogen. […] Stability was determined by extraction of 0.5 g portions of the diet with 2.5 ml methanol (2×). The methanol extracts were combined and a 1 ml aliquot was filtered using a 0.47 μm syringe filter.

[2] = test system: alveolar epithelium cells of lung; assay: In situ end-labeling (ISEL/TUNEL) of apoptosis in lung sections; format: in vivo, A/J mice
p53 [3] = assay: Western blot of lung proteins: p53 expression and phosphorylation; format: in vivo, A/J mice; conditions: lungs at termination of the bioassay
[4] = test system: B(a)P-induced lung adenoma; assay: Tumor bioassay: B(a)P-induced lung tumorigenesis, ITC-NAC conjugates in diet during post-initiation phase
Description: The ITC conjugates were incorporated (15 μmol/g diet) into AIN-76A diets (5% corn oil) by mixing with dextrose prior to diet preparation. The conjugates, 9.36 g BITC-NAC (15 mmol) or 9.79 g PEITC-NAC (15 mmol), were dissolved in 50 ml ethyl acetate, and then mixed with 200 g dextrose to ensure even coating of dextrose particles. After mixing with dextrose, the solvent was removed using a rotary evaporator and further dried using a vacuum pump (2-3 h). Diets were prepared in 1-2 kg batches, and were stored at 4° C. in a container purged with nitrogen. […] Stability was determined by extraction of 0.5 g portions of the diet with 2.5 ml methanol (2×). The methanol extracts were combined and a 1 ml aliquot was filtered using a 0.47 μm syringe filter. A 10 μl sample was then analyzed on HPLC (Jiao, et al., Chem. Res. Toxicol., 9: 932-938, 1996).
Tumor Bioassay: Female strain A mice (Jackson Laboratories, Bar Harbor, Me.) of four weeks of age were housed under quarantine in polycarbonate cages (5 mice/cage) and provided modified AIN 76A diet (5% corn oil) and acidified drinking water ad libitum. The mice were maintained on a 12 h light: 12 h dark regimen at 22±5° C. and 50±20% relative humidity. After one week, the mice were weighed, and distributed into four groups containing 30 to 35 mice on the basis of body weight. At seven weeks of age, the mice in groups 1-3 were gavaged with a single dose of 20 μmol B(a)P in 0.2 ml cottonseed oil; group 4 received the vehicle only. Two days after dosing with the carcinogen, diets containing BITC-NAC (15 μmol/g, Group 2) and PEITC-NAC (15 μmol/g, Group 3) were provided. Groups 1 (B[a]P control) and 4 (vehicle only) remained on the modified AIN-76A diet with 5% corn oil. Tap water was provided ad libitum during the course of the bioassay. Mice were observed daily; diets were replenished on the fourth day of the week, and completely replaced on the seventh day. Mice were weighed weekly for four weeks, then monthly and at termination. At 84 days after B(a)P dosing, four mice per group were killed (CO2, cervical dislocation) to harvest lung tissues for molecular and immunohistochemical studies and to quantify lung adenomas, if present. At 140 days after B(a)P, the remaining mice in each group were killed. The number of lung tumors was recorded; lobes of lungs were placed in 10% phosphate buffered formalin for histological and immunohistochemical analysis. The remaining lung lobes were snap frozen in liquid nitrogen.
Mean tumor multiplicity and body weights at each time point were compared between groups using Student's T test.

[5] = test system: NNK/B(a)P-induced lung adenomas and adenocarcinomas; conditions: for mean numbers of lung adenomas compared with carcinogen control mice: at termination; for Adenocarcinoma Incidence (%) / Adenocarcinoma Multiplicity mean ± SD / Adenoma Incidence (%) / Adenoma Multiplicity mean ± SD: preliminary
Description: The test compounds were given in the diet on week 21 after beginning of a weekly dose of a mixture of NNK/B(a)P: 3 μmol each (621 μg NNK and 756 μg B(a)P) in 0.1 ml cottonseed oil for eight weeks (a total of 8 doses) (groups 1 to 10); only vehicle (cottonseed oil) for groups 11 to 15. Animals were then given experimental diet for 20 weeks until week 40. Four mice in groups 1, 2, 4, 6, 8, and 10 (see Table 1) were sacrificed on weeks 20, 38, and 40. The bioassay was terminated on week 52. If sufficient numbers of tumors were developed in mice killed on week 40, the bioassay was terminated at week 40. Tumors (adenomas and carcinomas) were quantified by multiplicity and incidence. At sacrifice, livers and lungs were harvested and the tissues rinsed in autoclaved PBS, stored in labeled foil, and snap frozen in liquid nitrogen. These tissues both tumorous and non-tumorous were processed by histology for biomarker studies (TUNEL, PCNA,p53, […] kinases, etc.). Lungs were examined by histology at termination (52 week or 40 week) for adenomas and carcinomas).
In this study, the potential protective effects of ITCs and ITC-NACs against progression of lung adenomas to malignant tumors were investigated. Lung tumors were induced in A/J mice with 3 μmol B(a)P plus 3 μmol NNK (gavage once/wk, 8 wks); mice were maintained on AIN-76A semi-purified diets. […] Diets containing PEITC (phenethyl ITC) or SFN (sulforaphane), each at 3 mmol/kg and 1.5 mmol/kg diet; PEITC-NAC or SFN-NAC at 8 mmol/kg and 4 mmol/kg diet; and NAC at 8 mmol/kg diet were then provided to groups of 28 mice (high dose) or 20 mice (low dose) during weeks 20 to 40 after initiation. Four mice in each high dose treatment group were killed during weeks 28 and 40 to monitor tumor incidence and progression; lung tissues were used for molecular studies. Remaining mice were killed at 40 weeks for histopathological examination. […] To assess molecular events occurring during the treatments, lung RNA of mice treated with B(a)P+NNK/control diet and B(a)P+NNK/PEITC-NAC high dose diet was examined using a Mouse Cancer Pathway Finder Gene Array.

[6] = test system: aberrant crypt foci in the colon; conditions: oral, after or independent of timing of azoxymethane; cited from earlier work
[7] = test system: p53 (−/−) mouse embryo fibroblasts; conditions: cited from earlier work
p53 [8] = conditions: mouse epidermal cell line, with accompanying apoptosis; cited from earlier work
[9] = test system: AP-1 binding activity in A549 cells; assay: EMSA of AP-1 binding activity in A549 cells; format: cell-based, human; design: AP-1 binding activity: dose or concentration left out as unconfirmed; conditions: for 24 h
Description: Cell Lines: The human lung adenocarcinoma cell line A549 was obtained from the American Type Culture Collection (ATCC) (Bethesda, Md.). […] Cells were grown at 37° C. with 5% CO2.
Reagents: The PEITC was obtained from Aldrich (Milwaukee, Wis.) and its N-acetylcysteine conjugate was synthesized in house by the Organic Synthesis Facility using the method described previously (Kassahun et al., Chem Res Toxicol 1997, 10(11):1228-33). Unless specified otherwise, the A549 cells were treated with 10 or 25 μM of PEITC-NAC. TPA (12-O-tetradecanoylphorbol-13-acetate) was purchased from Sigma (St. Louis, Mo.).
Electrophoretic Mobility Shift Assay (EMSA): Double-stranded oligonucleotides containing the consensus-binding site for AP-1 were purchased commercially (Santa Cruz Biotech). The oligos were labeled with γ-^32P-ATP (6000 Ci/mmol, Armeshem Pharmacia Biotech. Inc Piscataway, N.J.) using polynucleotide kinase (Promega, Madison, Wis.) according to standard procedures. The labeled DNA was incubated with 5 μg of total proteins (as specified in the Results section) for 10 min at room temperature, in the presence of 1 μg of poly d(I)-d(C) oligomer (Roche Molecular Biochemicals, Indianapolis, Ind.) and DNA-binding buffer as described previously (Yang et al., Cell Growth Differ 1993, 4(7):595-602). The complexes were then separated on a 7.5% polyacrylamide gel and autoradiographed.
Proteins Isolation: Cells were incubated in a 37° C. with 5% CO2, followed by mock or treatments specified in the results section. Total proteins were then isolated using RIPA buffer. The protease inhibitors aprotinin (1 μg/ml), leupeptin (1 μg/ml), pepstatin (1 μg/ml), phenylmethylsulfonyl fluoride (0.1 mM) and the phosphatase inhibitor Na3VO4 (1 mM), NaF (1 mM) were added to all buffers. The protein concentrations were determined using the Coomassie Plus Protein Assay Reagent (Pierce, Rockford, Ill.), and aliquots of the proteins were stored at −80° C.

A549 cells = assay: Apoptosis in A549 cells treated with TPA, PEITC-NAC or TPA plus PEITC-NAC (photography, DAPI staining); format: cell-based, human; conditions: 100 nM TPA
Excerpt: Assay for single cell DNA strand breaks: A549 cells treated with or without TPA, PEITC-NAC or TPA plus PEITC-NAC were collected at the times specified in the text, cytocentrifuged and stained with 4′-6′diamidino-2-phenylindole (DAPI). The photographs were taken using an Olympus AX 70 microscope (Melville, N.Y.) with fluorescence and SPOT RT Slider digital image system (Diagnostic Instruments Inc., Sterling Heights, Mich.). Arrows indicated the typical apoptotic features of DNA strand breakage and nuclear fragmentation.
TPA (100 nM) was added to A549 cells 12 h prior to addition of PEITC-NAC, which was added 24 h before photography of cells, protein isolation, or DAPI staining. […] These cells were treated identically, but were stained with the DNA fluorochrome DAPI.

[10] = high dose (3 or 8 mmol/kg diet)
[11] = high dose (PEITC, SFN 3 mmol/kg diet; PEITC-NAC, SFN-NAC, NAC 8 mmol/kg diet)
[12] = low dose (1.5 or 4 mmol/kg diet)
[13] = low dose (PEITC, SFN 1.5 mmol/kg diet; PEITC-NAC, SFN-NAC 4 mmol/kg diet)

Row | Structure (SMILES) | mean numbers of lung adenomas compared with carcinogen control mice [5] | Adenocarcinoma Incidence (%) [5, 10] | Adenocarcinoma Multiplicity mean ± SD [5, 10] | Adenoma Incidence (%) [5, 10] | Adenoma Multiplicity mean ± SD [5, 11] | Adenocarcinoma Incidence (%) [5, 12] | Adenocarcinoma Multiplicity mean ± SD [5, 12] | Adenoma Incidence (%) [5, 12] | Adenoma Multiplicity mean ± SD [5, 13] | aberrant crypt foci formation [6] | other results
1 | CC(=O)N[C@@H](CSC(=S)NCc1ccccc1)C(=O)O [BITC-NAC, benzyl isothiocyanate-NAC] |  |  |  |  |  |  |  |  |  |  | JNK 1 (p46) phosphorylation level (JNK 1 and 2): increase; JNK 2 (p54) phosphorylation (JNK 1 and 2): only slightly induced; stability in diet [1]: stable for at least one month; increase in apoptosis, non-tumorous lung tissue ([2]; after 140 days): 2.4 fold; apoptotic index, fold elevation ([2]; lung tissue at 84 days, before tumors appeared): approximately 2 fold; phosphorylation of p53 at Ser15 (p53 [3]): moderate increase; tumor multiplicity ([4]; 15 μmol/g diet after B(a)P, at termination, B(a)P control 6.1±3.1): 3.7±2.9 tumors/mouse; Tumor Incidence (%), lung adenoma ([4]; 15 μmol/g diet from 2 days after 20 μmol B(a)P, 140 days): 94%; Tumor multiplicity (no. of tumors/mice), lung adenoma ([4]; 15 μmol/g diet from 2 days after 20 μmol B(a)P, 140 days, mean ± SD): 3.72 ± 2.90^b no. of tumors/mice; average body weight at termination ([4]; 15 μmol/g diet, controls 25.8 g and 25.7 g): 22.9 g; tumor reduction ([4]; versus B(a)P control diet group, at termination): 39%
2 | CC(=O)N[C@@H](CS)C(=O)O [NAC, N-acetyl-L-cysteine] | decreases were significant | 4/8 (50%) | 1.10 ± 1.51 | 8/8 (100%) |  |  |  |  |  |  | 
3 | S=C=NCCc1ccccc1 [PEITC, phenethyl isothiocyanate] |  | 6/32 (19%)* |  | 31/32 (96.90%) | 8.81 ± 3.96 | 7/20 (35%) | 1.15 ± 1.85 | 19/20 (95%) | 7.25 ± 4.43 | inhibited foci formation | Overall % Survival ([5]; high dose, adjusted for scheduled sacrifices, control 29.8%): 21.10%; induction of apoptosis [7]: did not induce apoptosis; p53 transactivation (p53 [8]): induces p53 transactivation in a dose- and time-dependent manner
4 | C[S+]([O-])CCCCN=C=S (centres unmarked) [SFN, sulforaphane] |  | 10/32 (31.3%) | 0.84 ± 1.48 | 30/32 (93.8%) | 8.84 ± 5.72 | 4/20 (20%) | 0.30 ± 0.64 | 20/20 (100%) | 9.25 ± 4.15 | inhibited foci formation | malignant tumor multiplicity ([5]; low dose groups, initiated control group 2.1): 0.9 tumors/mouse
5 | CC(=O)NC(CSC(=S)NCCCC[S+](C)[O-])C(=O)O (centres unmarked) [SFN-NAC, sulforaphane-NAC] | decreases were significant | 5/31 (16.13%) | 0.42 ± 1.01 | 31/31 (100%) | 9.06 ± 5.35 | 2/19 (10.53%) | 0.32 ± 0.92 | 18/19 (94.74%) | 8.53 ± 4.32 |  | 
6 | CCCCCCCCCCCCCC(=O)O[C@@H]1[C@@H](C)[C@@]2(O)[C@@H](C=C(CO)C[C@]3(O)C(=O)C(C)=C[C@@H]23)[C@@H]2C(C)(C)[C@]12OC(C)=O [TPA, 12-O-tetradecanoylphorbol-13-acetate] |  |  |  |  |  |  |  |  |  |  | AP-1 binding activity [9]: specifically induced; cell growth / apoptosis with TPA alone (A549 cells): appear to be growing well; also recorded: did not cause apoptosis in A549 cells
